pIC50, pKi: −log10 of the molar value.
Key:
[1] = molecular target: Cytochrome P450 3A4 (Homo sapiens, UniProt P08684); experiment: Inhibition of CYP3A4 (unknown origin) using BFC as substrate; format: ADME
[2] = Permeability of compound at pH 5.5 measured after 4 hrs by PAMPA assay; format: ADME; conditions: read-out: permeability
[3] = molecular target: T1, AP2-associated protein kinase 1 (Homo sapiens, UniProt Q2M2I8); experiment: Inhibition of GST-Xa tagged human AAK1 (30 to 330 residues) expresssed in bacteria using (5-FAM)-Aha-KEEQSQITSQVTGQIGWR-NH2 peptide as substrate incubated for 3 hrs in presence of ATP by electrophoretic analysis
[4] = Displacement of 3H-LP-927443 from AAK1 in mouse brain membrane homogenate assessed as inhibition constant at 1 uM incubated for 1 hr by liquid scintillation counter analysis; format: cell membranes
[5] = molecular target: T1, AP2-associated protein kinase 1; experiment: Inhibition of […] in HEK293F cells assessed as reduction in phospho mu2 formation incubated for 3 hrs by Western blot analysis; format: cell-based
[6] = molecular target: Cytochrome P450 (Homo sapiens, UniProt P04798+P05177+P05181+P08684+P10632+P10635+P11509+P11712+P13584+P20813+P20815+P20853+P24462+P24903+P33260+P33261+P51589+P78329+P98187+Q02928+Q08477+Q16678+Q16696+Q5TCH4+Q6VVX0+Q7Z449+Q8TAV3+Q96SQ9+Q9HB55); experiment: Metabolic stability in human liver microsomes assessed as CYP450-mediated metabolism by measuring parent compound remaining at 0.5 uM incubated for 10 mins in presence of NADPH by LC-MS/MS analysis; format: ADME; conditions: read-out: Stability
[7] = Metabolic stability in rat liver microsomes assessed as CYP450-mediated metabolism by measuring parent compound remaining at 0.5 uM incubated for 10 mins in presence of NADPH by LC-MS/MS analysis; format: ADME; conditions: read-out: Stability
[8] = Metabolic stability in mouse liver microsomes assessed as CYP450-mediated metabolism by measuring parent compound remaining at 0.5 uM incubated for 10 mins in presence of NADPH by LC-MS/MS analysis; format: ADME; conditions: read-out: Stability
[9] = Protein binding in human plasma assessed as unbound fraction at 10 uM measured after 5 hrs by LC-MS/MS analysis; format: ADME, cell-free
[10] = Protein binding in rat plasma assessed as unbound fraction at 10 uM measured after 5 hrs by LC-MS/MS analysis; format: ADME, cell-free
[11] = Protein binding in mouse plasma assessed as unbound fraction at 10 uM measured after 5 hrs by LC-MS/MS analysis; format: ADME, cell-free
[12] = Permeability of compound at pH 7.4 measured after 4 hrs by PAMPA assay; format: ADME; conditions: read-out: permeability
[13] = Permeability across apical to basolateral side in human Caco-2 cells at 3 uM measured after 2 hrs by LC-MS/MS analysis; format: ADME, cell-based; conditions: read-out: permeability
[14] = Permeability across basolateral to apical side in human Caco-2 cells at 3 uM measured after 2 hrs by LC-MS/MS analysis; format: ADME, cell-based; conditions: read-out: permeability
[15] = test system: Aorta; experiment: Cardiotoxicity in rat aortic ring assessed as relaxation of phenylephrine induced aortic ring contraction at 10 uM incubated for 1 hr; format: toxicity, tissue-based; set-up: scale not given: the % may be the effect or the level left
[16] = Inhibition of PCKA (unknown origin); set-up: species or system Homo sapiens
[17] = molecular target: BMP-2-inducible protein kinase (Homo sapiens, UniProt Q9NSY1); experiment: Inhibition of BIKE (unknown origin)
[18] = molecular target: Cyclin-G-associated kinase (Homo sapiens, UniProt O14976); experiment: Inhibition of GAK (unknown origin)
[19] = molecular target: Citron Rho-interacting kinase (Homo sapiens, UniProt O14578); experiment: Inhibition of CRIK (unknown origin)
[20] = molecular target: MAP kinase-interacting serine/threonine-protein kinase 1 (Homo sapiens, UniProt Q9BUB5); experiment: Inhibition of MNK1 (unknown origin)
[21] = molecular target: cGMP-dependent protein kinase 2 (Homo sapiens, UniProt Q13237); experiment: Inhibition of PKG2 (unknown origin)
[22] = molecular target: Serine/threonine-protein kinase N2 (Homo sapiens, UniProt Q16513); experiment: Inhibition of PRK2 (unknown origin)
[23] = molecular target: Rho-associated protein kinase 2 (Homo sapiens, UniProt O75116); experiment: Inhibition of ROCK2 (unknown origin)
[24] = Toxicity in naive Sprague-Dawley rat assessed as motor impairment at 100 mg/kg, po measured after 5 hrs by rotarod test; format: organism-based; conditions: in vivo
[25] = test system: Rattus norvegicus; experiment: Analgesic activity in streptozotocin induced diabetic peripheral neuropathic mechanical allodynia in overnight fasted Sprague-Dawley rat model assessed as reduction in pain response at 1 mg/kg, po measured after 5.5 hrs post treatment; format: functional; set-up: scale not given: the % may be the effect or the level left
[26] = Cmax in plasma of overnight fasted Sprague-Dawley rat model of streptozotocin induced diabetic peripheral neuropathic mechanical allodynia at 1 mg/kg, po measured after 5.5 hrs; format: ADME, organism-based; set-up: route oral, time 5.5 hrs, dose 1 mg/kg
[27] = Drug concentration in brain of overnight fasted Sprague-Dawley rat model of streptozotocin induced diabetic peripheral neuropathic mechanical allodynia at 1 mg/kg, po measured after 5.5 hrs; format: ADME, organism-based; conditions: read-out: Ct
[28] = Drug concentration in streptozotocin induced diabetic peripheral neuropathic mechanical allodynia in overnight fasted Sprague-Dawley rat spinal cord at 1 mg/kg, po measured after 5.5 hrs; format: ADME, organism-based; conditions: read-out: Ct
[29] = Ratio of drug concentration in brain to plasma in streptozotocin induced diabetic peripheral neuropathic mechanical allodynia in overnight fasted Sprague-Dawley rat at 1 mg/kg, po measured after 5.5 hrs; format: ADME, organism-based
[30] = molecular target: MAP kinase-interacting serine/threonine-protein kinase 2 (Homo sapiens, UniProt Q9HBH9); experiment: Inhibition of MNK2 (unknown origin)
[31] = molecular target: Glycogen synthase kinase-3 alpha (Homo sapiens, UniProt P49840); experiment: Inhibition of GSK3A (unknown origin)
Glycogen synthase kinase-3 alpha, sequence (P49840 whole entry): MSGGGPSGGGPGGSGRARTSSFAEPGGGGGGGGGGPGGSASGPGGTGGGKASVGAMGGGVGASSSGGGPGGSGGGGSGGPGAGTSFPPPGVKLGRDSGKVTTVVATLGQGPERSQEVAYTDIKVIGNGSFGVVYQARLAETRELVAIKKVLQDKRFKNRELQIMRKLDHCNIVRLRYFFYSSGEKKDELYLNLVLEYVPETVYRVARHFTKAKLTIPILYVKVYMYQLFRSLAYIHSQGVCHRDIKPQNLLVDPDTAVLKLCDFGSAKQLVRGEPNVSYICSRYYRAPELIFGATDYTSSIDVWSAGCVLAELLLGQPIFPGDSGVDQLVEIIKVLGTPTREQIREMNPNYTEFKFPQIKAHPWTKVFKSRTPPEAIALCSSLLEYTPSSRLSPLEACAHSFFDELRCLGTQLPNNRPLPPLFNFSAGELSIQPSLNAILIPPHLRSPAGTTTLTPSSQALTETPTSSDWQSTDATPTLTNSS

T1 sequence (Q2M2I8 whole entry, the tested form may be a part): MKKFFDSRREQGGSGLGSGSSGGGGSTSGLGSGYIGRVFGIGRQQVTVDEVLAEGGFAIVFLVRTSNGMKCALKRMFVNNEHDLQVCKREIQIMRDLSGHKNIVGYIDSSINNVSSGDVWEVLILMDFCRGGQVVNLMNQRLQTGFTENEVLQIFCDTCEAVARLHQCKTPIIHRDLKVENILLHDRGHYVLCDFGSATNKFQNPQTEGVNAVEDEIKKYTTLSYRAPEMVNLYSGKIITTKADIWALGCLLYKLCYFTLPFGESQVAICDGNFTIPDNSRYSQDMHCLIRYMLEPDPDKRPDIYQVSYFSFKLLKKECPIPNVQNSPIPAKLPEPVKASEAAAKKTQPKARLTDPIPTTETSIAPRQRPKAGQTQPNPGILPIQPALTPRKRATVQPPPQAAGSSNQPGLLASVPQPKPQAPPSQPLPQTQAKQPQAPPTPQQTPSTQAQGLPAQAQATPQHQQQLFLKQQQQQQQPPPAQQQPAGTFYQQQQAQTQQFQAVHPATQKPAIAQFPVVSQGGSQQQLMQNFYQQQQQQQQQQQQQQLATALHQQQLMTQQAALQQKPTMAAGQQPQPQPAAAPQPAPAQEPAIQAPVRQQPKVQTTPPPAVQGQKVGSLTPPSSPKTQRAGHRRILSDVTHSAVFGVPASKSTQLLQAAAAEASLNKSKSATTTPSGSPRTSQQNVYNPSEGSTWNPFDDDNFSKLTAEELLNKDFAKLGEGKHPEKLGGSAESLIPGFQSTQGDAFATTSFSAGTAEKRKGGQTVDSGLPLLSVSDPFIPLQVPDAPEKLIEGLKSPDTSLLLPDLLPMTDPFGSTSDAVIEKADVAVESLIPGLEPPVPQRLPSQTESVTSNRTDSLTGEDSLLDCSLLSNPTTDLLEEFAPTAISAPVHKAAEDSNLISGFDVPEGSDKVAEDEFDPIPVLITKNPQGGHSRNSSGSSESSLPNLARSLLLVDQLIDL
Cytochrome P450 3A4, sequence (P08684 whole entry): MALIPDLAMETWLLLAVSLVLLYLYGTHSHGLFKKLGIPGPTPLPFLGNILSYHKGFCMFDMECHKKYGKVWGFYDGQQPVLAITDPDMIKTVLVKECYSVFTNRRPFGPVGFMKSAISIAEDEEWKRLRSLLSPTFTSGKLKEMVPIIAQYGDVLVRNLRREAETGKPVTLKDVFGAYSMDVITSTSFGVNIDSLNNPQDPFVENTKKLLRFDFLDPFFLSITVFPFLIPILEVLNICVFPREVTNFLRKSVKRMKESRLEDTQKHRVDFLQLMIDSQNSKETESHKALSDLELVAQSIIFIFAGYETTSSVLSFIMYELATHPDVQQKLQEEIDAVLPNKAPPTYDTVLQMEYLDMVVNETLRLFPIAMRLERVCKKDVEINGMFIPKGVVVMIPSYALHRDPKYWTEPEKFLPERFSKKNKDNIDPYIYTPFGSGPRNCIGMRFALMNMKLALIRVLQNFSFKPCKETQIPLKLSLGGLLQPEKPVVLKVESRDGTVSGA
cGMP-dependent protein kinase 2, sequence (Q13237 whole entry): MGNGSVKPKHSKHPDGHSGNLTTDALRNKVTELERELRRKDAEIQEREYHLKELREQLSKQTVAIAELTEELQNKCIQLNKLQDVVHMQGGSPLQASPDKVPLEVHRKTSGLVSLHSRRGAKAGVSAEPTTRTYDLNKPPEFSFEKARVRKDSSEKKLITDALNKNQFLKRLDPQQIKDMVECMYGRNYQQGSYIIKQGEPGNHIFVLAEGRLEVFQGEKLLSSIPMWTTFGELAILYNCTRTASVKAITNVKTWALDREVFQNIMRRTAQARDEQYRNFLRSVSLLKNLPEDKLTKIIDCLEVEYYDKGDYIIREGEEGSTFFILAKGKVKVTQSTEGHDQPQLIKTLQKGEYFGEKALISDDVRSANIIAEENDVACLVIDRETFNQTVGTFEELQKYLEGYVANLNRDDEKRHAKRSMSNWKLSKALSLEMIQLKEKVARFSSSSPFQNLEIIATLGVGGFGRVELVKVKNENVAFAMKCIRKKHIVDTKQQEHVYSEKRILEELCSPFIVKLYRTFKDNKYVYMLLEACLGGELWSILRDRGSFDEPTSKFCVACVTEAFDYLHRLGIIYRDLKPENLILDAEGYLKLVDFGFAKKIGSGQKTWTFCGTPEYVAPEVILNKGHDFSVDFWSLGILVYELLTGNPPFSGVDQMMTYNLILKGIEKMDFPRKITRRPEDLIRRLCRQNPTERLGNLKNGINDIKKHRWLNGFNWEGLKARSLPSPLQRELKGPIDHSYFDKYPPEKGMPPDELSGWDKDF
MAP kinase-interacting serine/threonine-protein kinase 1, sequence (Q9BUB5 whole entry): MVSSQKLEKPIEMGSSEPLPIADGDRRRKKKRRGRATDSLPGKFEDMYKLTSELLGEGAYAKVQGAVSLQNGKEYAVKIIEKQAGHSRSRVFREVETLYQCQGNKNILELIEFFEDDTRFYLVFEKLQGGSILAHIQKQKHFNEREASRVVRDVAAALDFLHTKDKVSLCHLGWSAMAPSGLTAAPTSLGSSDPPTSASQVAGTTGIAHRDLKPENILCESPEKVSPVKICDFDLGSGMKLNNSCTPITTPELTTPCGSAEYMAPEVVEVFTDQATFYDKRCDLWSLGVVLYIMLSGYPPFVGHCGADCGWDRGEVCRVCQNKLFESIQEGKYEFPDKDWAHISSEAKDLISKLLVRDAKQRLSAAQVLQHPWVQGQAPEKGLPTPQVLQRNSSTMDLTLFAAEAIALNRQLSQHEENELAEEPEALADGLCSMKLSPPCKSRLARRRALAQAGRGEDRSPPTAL
Serine/threonine-protein kinase N2, sequence (Q16513 whole entry): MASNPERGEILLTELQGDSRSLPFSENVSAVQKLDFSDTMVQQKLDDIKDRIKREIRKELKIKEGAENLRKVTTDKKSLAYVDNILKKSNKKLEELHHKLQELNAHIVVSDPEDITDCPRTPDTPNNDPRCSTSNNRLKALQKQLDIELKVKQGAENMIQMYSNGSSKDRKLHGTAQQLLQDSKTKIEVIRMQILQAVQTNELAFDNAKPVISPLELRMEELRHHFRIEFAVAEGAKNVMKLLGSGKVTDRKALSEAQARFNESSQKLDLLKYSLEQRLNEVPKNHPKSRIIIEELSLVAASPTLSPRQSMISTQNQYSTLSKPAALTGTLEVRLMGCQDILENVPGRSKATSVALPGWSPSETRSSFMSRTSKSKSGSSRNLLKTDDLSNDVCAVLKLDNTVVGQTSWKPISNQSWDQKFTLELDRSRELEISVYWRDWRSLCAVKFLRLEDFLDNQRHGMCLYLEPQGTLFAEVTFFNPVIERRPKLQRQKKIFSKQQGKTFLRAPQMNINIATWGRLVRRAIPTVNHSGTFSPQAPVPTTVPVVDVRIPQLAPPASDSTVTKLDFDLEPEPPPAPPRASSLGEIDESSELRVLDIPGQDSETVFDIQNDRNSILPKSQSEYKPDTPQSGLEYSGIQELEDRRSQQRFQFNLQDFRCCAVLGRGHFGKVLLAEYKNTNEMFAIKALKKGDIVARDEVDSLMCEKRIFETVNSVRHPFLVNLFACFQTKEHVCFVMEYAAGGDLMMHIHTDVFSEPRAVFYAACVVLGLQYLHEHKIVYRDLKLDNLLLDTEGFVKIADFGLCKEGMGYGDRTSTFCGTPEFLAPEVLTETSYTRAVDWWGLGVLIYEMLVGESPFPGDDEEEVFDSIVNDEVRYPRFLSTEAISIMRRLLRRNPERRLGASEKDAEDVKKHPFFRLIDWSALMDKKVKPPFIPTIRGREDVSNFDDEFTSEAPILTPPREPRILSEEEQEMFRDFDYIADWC
MAP kinase-interacting serine/threonine-protein kinase 2, sequence (Q9HBH9 whole entry): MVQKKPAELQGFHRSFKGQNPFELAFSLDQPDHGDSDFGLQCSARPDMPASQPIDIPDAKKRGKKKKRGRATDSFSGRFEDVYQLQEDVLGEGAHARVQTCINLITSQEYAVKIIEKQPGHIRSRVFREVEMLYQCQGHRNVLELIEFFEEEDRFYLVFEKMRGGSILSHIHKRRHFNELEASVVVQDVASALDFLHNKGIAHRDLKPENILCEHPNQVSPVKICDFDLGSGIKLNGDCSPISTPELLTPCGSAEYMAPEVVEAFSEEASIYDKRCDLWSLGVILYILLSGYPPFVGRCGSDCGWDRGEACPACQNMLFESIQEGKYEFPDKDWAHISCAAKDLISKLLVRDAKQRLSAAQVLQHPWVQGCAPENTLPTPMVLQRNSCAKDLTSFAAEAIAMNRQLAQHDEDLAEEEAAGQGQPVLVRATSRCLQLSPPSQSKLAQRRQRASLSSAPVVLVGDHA

Row | SMILES | pIC50 [1] | pIC50 [3] | pKi [4] | pIC50 [5] | remaining at 10 min, 0.5 µM [6] [%] | remaining at 10 min, 0.5 µM [7] [%] | remaining at 10 min, 0.5 µM [8] [%] | Activity [15] [%] | also measured
1 | CC(C)C[C@H](N)COc1ccc(-c2ccnc(C(F)(F)F)c2)cc1C#N | 5.89 |  |  |  |  |  |  |  | 
2 | CC(C)C[C@](C)(N)COc1ccc(-c2ccnc(C(F)F)c2)cc1C1CC1 | < 4.70 |  |  |  |  |  |  |  | Papp at 4 h [2]: 78.4 ×10⁻⁶ cm/s
3 | Cc1cc(-c2ccc(OC[C@@H](N)CC(C)C)c(C#N)c2)ccn1 | 5.62 | 9.10 | 9.15 | 7.05 |  |  |  |  | 
4 | Cc1cc(-c2ccc(OC[C@@](C)(N)CC(C)C)c(C(F)(F)F)c2)ccn1 | < 4.70 | 9.05 | 9.66 | 7.60 | 89 | 86 | 66 | 69 | fraction unbound at 5 h, 10 µM [9]: 0.02; fraction unbound at 5 h, 10 µM [10]: 0.026; fraction unbound at 5 h, 10 µM [11]: 0.017; Papp at 4 h [2]: 36 ×10⁻⁶ cm/s; Papp at 4 h [12]: 30.5 ×10⁻⁶ cm/s; Papp A→B at 2 h, 3 µM [13]: 7.1 ×10⁻⁶ cm/s; Papp B→A at 2 h, 3 µM [14]: 5.9 ×10⁻⁶ cm/s
5 | CC(C)C[C@](C)(N)COc1ccc(-c2ccnc(C(F)F)c2)cc1C(F)F | 4.80 | 9.40 | 10.40 | 9.05 | 96 | 83 |  | 84 | pIC50 [16]: 6.24; fraction unbound at 5 h, 10 µM [9]: 0.046; fraction unbound at 5 h, 10 µM [10]: 0.045; fraction unbound at 5 h, 10 µM [11]: 0.018; Papp at 4 h [2]: 99.9 ×10⁻⁶ cm/s; Papp at 4 h [12]: 42.7 ×10⁻⁶ cm/s; Papp A→B at 2 h, 3 µM [13]: 10.8 ×10⁻⁶ cm/s; Papp B→A at 2 h, 3 µM [14]: 6.2 ×10⁻⁶ cm/s; pIC50 [17]: 6.55; pIC50 [18]: 7.14; pIC50 [19]: 7.25; pIC50 [20]: 6.74; pIC50 [21]: 6.38; pIC50 [22]: 6.36; pIC50 [23]: 6.38
6 | CC(C)C[C@](C)(N)COc1ccc(-c2ccnc(C(F)F)c2)nc1Cl |  |  |  |  |  |  |  | 64 | 
7 | NCC1(CC(=O)O)CCCCC1 [GABAPENTIN] |  |  |  |  |  |  |  |  | Activity [24]: Non-Toxic
8 | CC(C)C[C@](C)(N)COc1ccc(-c2ccnc(Cl)c2)nc1C(F)F |  | 8.41 |  |  | 97 | 87 | 85 | 59 | 
9 | CC(C)C[C@H](N)COc1ccc(-c2ccncc2)cc1 | 5.06 |  |  |  |  |  |  |  | 
10 | Cc1cc(-c2ccc(OC[C@@](C)(N)CC(C)C)c(C)n2)ccn1 |  | 7.44 | 8.14 |  | 95 | 83 | 78 | 1 | 
11 | CC(C)C[C@](C)(N)COc1ccc(-c2ccnc(C(F)F)c2)cc1C(F)(F)F | 4.74 | 9.22 | 10.15 | 8.11 | 94 | 92 | 98 |  | fraction unbound at 5 h, 10 µM [9]: 0.008; fraction unbound at 5 h, 10 µM [10]: 0.004; fraction unbound at 5 h, 10 µM [11]: 0.002; Papp at 4 h [2]: 33.9 ×10⁻⁶ cm/s; Papp at 4 h [12]: 55 ×10⁻⁶ cm/s; Papp A→B at 2 h, 3 µM [13]: 3.3 ×10⁻⁶ cm/s; Papp B→A at 2 h, 3 µM [14]: 1.7 ×10⁻⁶ cm/s; Activity [25]: 30%; Cmax [26]: 80 nM; concentration at 5.5 h [27]: 880 nM; concentration at 5.5 h [28]: 510 nM; Kp at 5.5 h [29]: 11; pIC50 [30]: 6.42; pIC50 [31]: 5.77; pIC50 [21]: 6.42
12 | CC(C)C[C@](C)(N)COc1ncc(-c2ccnc(C(F)F)c2)cc1C#N |  |  |  |  |  |  |  | 50 | 
13 | Cc1cc(-c2ccc(OC[C@@](C)(N)CC(C)C)c(C3CC3)c2)ccn1 | < 4.70 |  |  |  |  |  |  |  | 
14 | Cc1cc(-c2cnc(OC[C@@](C)(N)CC(C)C)c(C(F)F)c2)ccn1 |  | 8.72 |  |  | 43 | 65 | 43 |  | 
15 | COc1cc(-c2ccc(OC[C@@H](N)CC(C)C)c(C#N)c2)ccn1 | 6.27 |  |  |  |  |  |  |  | 
16 | CC(C)C[C@](C)(N)COc1ccc(-c2ccnc(F)c2)cc1C(F)(F)F | < 4.70 |  |  |  |  |  |  |  | 
17 | CC(C)C[C@](C)(N)COc1ccc(-c2ccnc(C(F)F)c2)cc1C#N | < 4.70 | 9.22 | 9.60 | 8.19 | 85 | 71 | 97 | 100 | fraction unbound at 5 h, 10 µM [9]: 0.14; fraction unbound at 5 h, 10 µM [10]: 0.14; fraction unbound at 5 h, 10 µM [11]: 0.079; Papp at 4 h [2]: 68.1 ×10⁻⁶ cm/s; Papp at 4 h [12]: 68.7 ×10⁻⁶ cm/s; Papp A→B at 2 h, 3 µM [13]: 22.2 ×10⁻⁶ cm/s; Papp B→A at 2 h, 3 µM [14]: 17.7 ×10⁻⁶ cm/s
18 | CC(C)C[C@](C)(N)COc1ccc(-c2ccncc2)cc1C(F)(F)F | 6.20 | 9.22 | 9.77 | 7.54 |  |  |  |  | 
19 | CC(C)C[C@](C)(N)COc1ncc(-c2ccnc(Cl)c2)cc1C(F)F |  | 8.51 |  | 8.04 | 89 | 88 | 76 |  | 
20 | Cc1cc(-c2ccc(OC[C@@](C)(N)CC(C)C)c(C#N)c2)ccn1 | < 4.70 |  |  |  |  |  |  |  | 
21 | Cc1cc(-c2ccc(OC[C@@](C)(N)CC(C)C)c(C(F)F)n2)ccn1 |  | 8.54 | 8.96 | 7.96 | 81 | 82 | 71 | 26 | 
22 | Cc1cc(-c2cnc(OC[C@@](C)(N)CC(C)C)c(C#N)c2)ccn1 |  |  |  |  |  |  |  | 28 | 
23 | Cc1cc(-c2ccc(OC[C@@](C)(N)CC(C)C)c(C(F)F)c2)ccn1 | < 4.70 | 9.40 | 10.10 | 9.10 | 74 | 81 | 69 | 57 | fraction unbound at 5 h, 10 µM [9]: 0.037; fraction unbound at 5 h, 10 µM [10]: 0.031; fraction unbound at 5 h, 10 µM [11]: 0.02; Papp at 4 h [2]: 69.7 ×10⁻⁶ cm/s; Papp at 4 h [12]: 31.9 ×10⁻⁶ cm/s; Papp A→B at 2 h, 3 µM [13]: 9.5 ×10⁻⁶ cm/s; Papp B→A at 2 h, 3 µM [14]: 6 ×10⁻⁶ cm/s
